Experimental data: US9296704B2, “Substituted pyrimidines as protein kinase inhibitors” (CELGENE AVILOMICS RESEARCH, INC., priority 2007, dated 2016)
pIC50: −log10 of the molar value.

Key:
[1] = target: T1, EGFR (T790M/L858R) (Homo sapiens, UniProt P00533, L858R/T790M); test: Omnia continuous-read kinase assay, EGFR (T790M/L858R); type: biochemical; conditions: read-out: EGFR (T790M/L858R) inhibiton
T1 construct: purchased BPS Bioscience 40350
How it was run: (§1)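 Enzyme pre-incubated 30 min at 27 °C with compound, then ATP/Y12-Sox peptide added; fluorescence (ex360/em485) read continuously 60 min in 20 mM Tris pH 7.5, 5 mM MgCl2, 0.2 mM DTT. WT: 5 nM enzyme, […]; T790M/L858R: 3 nM enzyme, […]. IC50 from initial velocities, variable-slope fit.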

[2] = target: BTK (Homo sapiens, UniProt Q06187); test: Omnia assay for potency against BTK; type: biochemical; conditions: read-out: BTK Inhibition
Sequence of BTK (Q06187 whole entry): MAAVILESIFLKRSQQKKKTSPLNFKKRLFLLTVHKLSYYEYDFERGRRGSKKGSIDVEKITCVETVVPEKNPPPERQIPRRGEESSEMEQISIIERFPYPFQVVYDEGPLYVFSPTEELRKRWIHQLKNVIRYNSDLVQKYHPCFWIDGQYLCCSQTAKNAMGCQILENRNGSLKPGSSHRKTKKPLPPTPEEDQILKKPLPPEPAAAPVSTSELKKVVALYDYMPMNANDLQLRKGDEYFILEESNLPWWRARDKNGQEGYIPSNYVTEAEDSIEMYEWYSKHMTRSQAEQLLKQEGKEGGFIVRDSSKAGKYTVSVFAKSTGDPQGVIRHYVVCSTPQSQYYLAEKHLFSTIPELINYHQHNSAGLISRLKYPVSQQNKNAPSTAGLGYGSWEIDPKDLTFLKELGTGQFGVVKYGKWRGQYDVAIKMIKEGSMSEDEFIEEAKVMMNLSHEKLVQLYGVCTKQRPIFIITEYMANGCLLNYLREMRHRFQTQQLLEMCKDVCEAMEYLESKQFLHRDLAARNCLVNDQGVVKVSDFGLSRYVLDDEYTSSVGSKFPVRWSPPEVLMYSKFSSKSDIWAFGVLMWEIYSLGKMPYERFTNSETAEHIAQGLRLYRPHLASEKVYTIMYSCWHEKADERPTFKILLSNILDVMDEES
How it was run: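 BTK (5 nM) was pre-incubated 30 min at 27° C with serially diluted compounds in Tris pH 7.5/MgCl2 buffer, then started with […] and Y5-Sox peptide 10 mM (ATP KMapp ~36 mM). Fluorescence (ex360/em485) was read continuously over 60 min. IC50 came from initial velocities using a variable-slope fit.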

[3] = target: T2, EGFR (WT) (Homo sapiens, UniProt P00533); test: Omnia continuous-read kinase assay, EGFR (WT); type: biochemical; conditions: read-out: EGFR inhibtion
T2 construct: purchased Invitrogen PV3872
T2 sequence (P00533 25-1210): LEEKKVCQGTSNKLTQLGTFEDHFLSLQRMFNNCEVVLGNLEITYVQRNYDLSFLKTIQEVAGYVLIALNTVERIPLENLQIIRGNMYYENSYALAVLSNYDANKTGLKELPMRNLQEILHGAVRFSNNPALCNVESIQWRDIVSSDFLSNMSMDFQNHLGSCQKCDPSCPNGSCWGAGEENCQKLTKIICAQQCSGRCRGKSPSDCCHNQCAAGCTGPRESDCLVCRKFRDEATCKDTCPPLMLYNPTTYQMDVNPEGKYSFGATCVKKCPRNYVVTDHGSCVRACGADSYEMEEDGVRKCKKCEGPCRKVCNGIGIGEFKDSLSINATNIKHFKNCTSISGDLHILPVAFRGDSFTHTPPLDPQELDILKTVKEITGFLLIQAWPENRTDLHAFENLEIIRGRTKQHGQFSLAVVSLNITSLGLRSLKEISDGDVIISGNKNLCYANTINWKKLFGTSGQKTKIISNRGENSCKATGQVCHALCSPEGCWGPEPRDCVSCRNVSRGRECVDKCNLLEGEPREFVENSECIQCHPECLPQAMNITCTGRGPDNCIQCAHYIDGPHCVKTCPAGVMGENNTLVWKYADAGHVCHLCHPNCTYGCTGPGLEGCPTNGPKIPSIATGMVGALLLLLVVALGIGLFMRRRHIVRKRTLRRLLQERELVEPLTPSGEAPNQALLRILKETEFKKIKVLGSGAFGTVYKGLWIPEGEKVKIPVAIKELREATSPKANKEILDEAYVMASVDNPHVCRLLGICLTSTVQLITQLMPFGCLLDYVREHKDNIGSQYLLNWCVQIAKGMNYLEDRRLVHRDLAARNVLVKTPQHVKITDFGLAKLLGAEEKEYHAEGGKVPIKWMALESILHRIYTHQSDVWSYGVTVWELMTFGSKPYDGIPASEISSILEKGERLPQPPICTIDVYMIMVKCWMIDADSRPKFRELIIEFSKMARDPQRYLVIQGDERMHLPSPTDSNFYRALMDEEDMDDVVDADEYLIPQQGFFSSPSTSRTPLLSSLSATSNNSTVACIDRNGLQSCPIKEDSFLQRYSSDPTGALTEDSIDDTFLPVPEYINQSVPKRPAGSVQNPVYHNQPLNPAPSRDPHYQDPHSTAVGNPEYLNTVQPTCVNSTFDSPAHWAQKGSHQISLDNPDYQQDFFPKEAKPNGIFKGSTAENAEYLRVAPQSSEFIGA
How it was run: as §1

[4] = target: T3, BMX (Homo sapiens, UniProt P51813); test: Omnia assay for potency against BMX; type: biochemical; conditions: read-out: BMX inhibition
T3 sequence (P51813 1-675): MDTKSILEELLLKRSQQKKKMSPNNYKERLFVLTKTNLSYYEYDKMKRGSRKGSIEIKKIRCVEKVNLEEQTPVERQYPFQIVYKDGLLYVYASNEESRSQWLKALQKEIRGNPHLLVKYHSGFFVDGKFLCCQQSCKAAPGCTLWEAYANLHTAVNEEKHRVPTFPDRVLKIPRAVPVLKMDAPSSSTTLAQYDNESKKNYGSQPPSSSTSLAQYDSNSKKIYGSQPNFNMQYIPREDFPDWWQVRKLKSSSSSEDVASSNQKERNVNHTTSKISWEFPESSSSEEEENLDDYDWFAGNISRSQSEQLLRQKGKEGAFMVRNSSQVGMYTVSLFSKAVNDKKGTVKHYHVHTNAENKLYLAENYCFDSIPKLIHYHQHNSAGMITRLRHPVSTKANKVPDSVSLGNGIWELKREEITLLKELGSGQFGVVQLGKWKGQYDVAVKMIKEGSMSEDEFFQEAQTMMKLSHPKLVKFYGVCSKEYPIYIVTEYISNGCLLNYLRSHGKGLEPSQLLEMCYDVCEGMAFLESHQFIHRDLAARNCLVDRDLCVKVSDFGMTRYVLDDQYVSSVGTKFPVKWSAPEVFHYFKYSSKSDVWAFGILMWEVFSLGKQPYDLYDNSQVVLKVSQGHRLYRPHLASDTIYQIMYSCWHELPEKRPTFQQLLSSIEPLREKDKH

[5] = tested on: BTK signaling in Ramos cells; test: BTK Ramos cellular assay (PLCγ2 phosphorylation); type: cell-based; conditions: Homo sapiens; for pIC50: Ramos cells, PLCγ2 phosphorylation, read-out: BTK Inhibition
[6] = tested on: BTK in Ramos cells; test: Washout experiment with Ramos cells for BTK activity; type: cell-based, human; conditions: for BTK Inhibition Type: Ramos washout assay, 100 nM compound for 1 hour
Experimental: Ramos cells were serum starved for one hour in RPMI media+1% glutamine at 37° C. After starvation, Ramos cells were treated with 100 nM compound diluted in serum free RPMI media for 1 hour. After compound treatment, the media was removed and cells were washed with compound-free media. Subsequently, Ramos cells were washed every 2 hours and resuspended in fresh compound-free media. Cells were collected at specified timepoints, treated with 1 ug anti-human IgM (Southern Biotech cat #2022-01) for 10 minutes on ice to induce BCR signaling and then washed in PBS. Ramos cells were then lysed in Cell Extraction Buffer (Invitrogen FNN0011) supplemented with Roche complete protease inhibitor tablets (Roche 11697498001) and phosphatase inhibitors (Roche 04 906 837 001) and 18 ug total protein lysate was loaded in each lane. Inhibition of BTK kinase activity was assayed by measuring its substrate (PLCγ2) phosphorylation by western blot with phospho-specific antibodies from Cell Signaling Technologies cat#3871. FIG. 10 depicts the results of compound I-13 in the washout experiment at 0 hour, 4 hour, 6 hour, and 8 hour time points.

T1 sequence (P00533 25-1210 T790M/L858R): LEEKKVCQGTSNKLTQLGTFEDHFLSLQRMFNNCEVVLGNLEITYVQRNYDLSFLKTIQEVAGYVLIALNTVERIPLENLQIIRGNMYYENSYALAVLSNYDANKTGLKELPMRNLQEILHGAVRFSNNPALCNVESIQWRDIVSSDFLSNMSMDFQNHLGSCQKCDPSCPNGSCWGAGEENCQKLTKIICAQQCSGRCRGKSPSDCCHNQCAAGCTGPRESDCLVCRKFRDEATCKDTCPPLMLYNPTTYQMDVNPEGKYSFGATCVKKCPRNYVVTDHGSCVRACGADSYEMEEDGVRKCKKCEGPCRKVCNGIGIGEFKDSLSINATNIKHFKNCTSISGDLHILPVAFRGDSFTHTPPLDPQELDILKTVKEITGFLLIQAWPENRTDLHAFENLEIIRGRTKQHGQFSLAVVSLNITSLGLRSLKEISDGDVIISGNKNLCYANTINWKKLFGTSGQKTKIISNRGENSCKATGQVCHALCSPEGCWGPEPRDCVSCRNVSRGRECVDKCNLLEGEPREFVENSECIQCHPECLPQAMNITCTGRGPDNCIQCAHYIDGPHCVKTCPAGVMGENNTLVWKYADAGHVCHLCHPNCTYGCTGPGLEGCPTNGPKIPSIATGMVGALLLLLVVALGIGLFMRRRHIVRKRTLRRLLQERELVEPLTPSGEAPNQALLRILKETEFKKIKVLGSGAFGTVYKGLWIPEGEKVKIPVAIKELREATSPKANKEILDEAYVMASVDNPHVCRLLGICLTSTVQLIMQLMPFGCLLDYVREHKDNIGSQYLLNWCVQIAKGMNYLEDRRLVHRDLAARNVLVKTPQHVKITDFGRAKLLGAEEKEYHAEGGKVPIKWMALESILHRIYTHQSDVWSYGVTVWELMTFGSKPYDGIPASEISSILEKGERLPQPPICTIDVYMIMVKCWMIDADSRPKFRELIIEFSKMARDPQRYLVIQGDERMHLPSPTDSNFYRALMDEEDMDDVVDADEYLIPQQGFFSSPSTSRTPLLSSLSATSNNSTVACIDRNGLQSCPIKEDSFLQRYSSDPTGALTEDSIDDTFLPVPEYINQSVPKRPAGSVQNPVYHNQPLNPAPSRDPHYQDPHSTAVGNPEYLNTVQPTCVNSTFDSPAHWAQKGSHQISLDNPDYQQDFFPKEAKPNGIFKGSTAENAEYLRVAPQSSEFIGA

With C=CC(=O)Nc1cccc(Nc2cc(Nc3cccc(Br)c3)ncn2)c1 [I-1, N-{3-[6-(3-bromophenylamino)-pyrimidin-4-ylamino]-phenyl}-2-propenamide] the pIC50 [1] was ≥ 8.00, the pIC50 [2] was 7.00 to 8.00 and the pIC50 [3] was ≥ 8.00.

C=CC(=O)Nc1cccc(Nc2cc(Nc3ccc(Oc4ccccc4)cc3)ncn2)c1 [I-13, N-{3-[6-(4-phenoxyphenylamino)-pyrimidin-4-ylamino]phenyl}-2 propenamide] was tested, and the pIC50 [1] was 7.00 to 8.00, the pIC50 [4] was ≥ 8.00 and the inhibition at 1 µM ([5]; Ramos, at 1 μM, 1 hour) was 85%. For the same compound, the pIC50 [5] was 7.00 to 8.00, the “inhibition of BTK after washout over time” value ([6]; Ramos cells, 100 nM, 0, 4, 6 and 8 hour time points) was “maintains inhibition of BTK for 8 hours” and the “BTK Inhibition Type” value [6] was “irreversible”. For the same compound, the pIC50 [2] was ≥ 8.00 and the pIC50 [3] was ≥ 8.00.

For C=CC(=O)Nc1cccc(Nc2cc(Nc3ccc(Oc4ccccc4)cc3)ncn2)n1 [I-63], the pIC50 [1] was ≥ 8.00, the pIC50 [4] was ≥ 8.00 and the pIC50 [5] was ≥ 8.00. For the same compound, the “BTK Inhibition Type” value [6] was “irreversible”, the pIC50 [2] was ≥ 8.00 and the pIC50 [3] was ≥ 8.00.

For CN(C)C/C=C/C(=O)Nc1cccc(Nc2cc(Nc3ccc(Oc4ccccc4)cc3)ncn2)n1 [I-64, (E)-4-(dimethylamino)-N-(6-(6-(4-phenoxyphenylamino)pyrimidin-4-ylamino)pyridine-2-yl)but-2-enamide], the pIC50 [4] was 7.00 to 8.00, the pIC50 [5] was 7.00 to 8.00 and the “BTK Inhibition Type” value [6] was “irreversible”. The pIC50 [2] was ≥ 8.00.

For C=CC(=O)Nc1cccc(Nc2cc(Oc3cccc(C)c3)ncn2)n1 [I-65], the pIC50 [1] was 7.00 to 8.00, the pIC50 [4] was ≥ 8.00 and the “BTK Inhibition Type” value [6] was “reversible”. The pIC50 [2] was ≥ 8.00 and the pIC50 [3] was ≥ 8.00.

With C=CC(=O)Nc1cccc(Nc2cc(Oc3ccc(Oc4ccccc4)cc3)ncn2)n1 [I-66] the pIC50 [1] was 6.00 to 7.00, the pIC50 [4] was ≥ 8.00 and the “BTK Inhibition Type” value [6] was “irreversible”. For the same compound, the pIC50 [2] was ≥ 8.00 and the pIC50 [3] was ≥ 8.00.

With C=CC(=O)N(C)c1cccc(Nc2cc(Nc3ccc(Oc4ccccc4)cc3)ncn2)n1 [I-78, N-methyl-N-(6-(6-(4-phenoxyphenylamino)pyrimidin-4-ylamino)pyridin-2-yl)acrylamide] the pIC50 [4] was 7.00 to 8.00, the pIC50 [5] was ≥ 8.00 and the pIC50 [2] was ≥ 8.00. For the same compound, the pIC50 [3] was ≥ 8.00.

For CN(C)C/C=C/C(=O)N(C)c1cccc(Nc2cc(Nc3ccc(Oc4ccccc4)cc3)ncn2)n1 [I-79, (E)-4-(dimethylamino)-N-methyl-N-(6-(6-(4-phenoxyphenylamino)pyrimidin-4-ylamino)pyridine-2-yl)but-2-enamide], the pIC50 [4] was ≥ 8.00, the pIC50 [5] was ≥ 8.00 and the pIC50 [2] was ≥ 8.00. The pIC50 [3] was ≥ 8.00.

In the case of Cc1cccc(Oc2cc(Nc3cccc(NC(=O)/C=C/CN(C)C)n3)ncn2)c1 [I-81], the pIC50 [4] was ≥ 8.00, the pIC50 [5] was ≥ 8.00 and the pIC50 [2] was ≥ 8.00. For the same compound, the pIC50 [3] was ≥ 8.00.

C=CC(=O)Nc1cccc(Nc2cc(Nc3ccccc3)ncn2)n1 [I-94] was tested, and the pIC50 [1] was ≥ 8.00, the pIC50 [4] was ≥ 8.00 and the pIC50 [2] was ≥ 8.00. For the same compound, the pIC50 [3] was ≥ 8.00.
